Results from patent US12630501B2, “Anti-fibrotic compounds and use thereof” (HADASIT MEDICAL RESEARCH SERVICES AND DEVELOPMENT LTD., priority 2019, dated 2026).

Tests used:
[1] = molecular target: HDAC9 (Homo sapiens, UniProt Q9UKV0); settings: prostate cancer cells; cited from earlier work
[2] = tested on: BLM-treated C57BL/6 WT mice; test: Bleomycin-induced lung fibrosis in mice, CMH by oropharyngeal aspiration; assay type: in vivo, mouse
Text: Animals C57BL/6 and mutant mice, male, 11-12 weeks old (Harlan Sprague Dawley, Indianapolis, IN, USA) were used. SIRT1 dominant-negative mice carry a point mutation (H355Y), Sirt1^tm2.1Mcby (Sirt1^y/y, RBRC05324, RIKEN Bio Resource Center, Japan) that ablates SIRT1 enzymatic activity, described in Gabay et al., Arthritis Rheum. 65: 159-166, 2013; and Seifert et al., FASEB J. 26: 555-566, 2012. Mice were maintained under specific pathogen-free conditions with adherence to institutional guidelines for the care and use of laboratory animals. Chimeric mice with SIRT1-deficient mice and WT hematopoietic cells were generated as described in Golan-Gerstl et al., Am. J. Respir Cell Mol. Biol. 36: 270-275, 2007.
Oropharyngeal aspiration (OA) and induction of lung fibrosis in mice Oropharyngeal aspiration of BLM (OA-BLM) was performed as detailed in Golan-Gerstl et al., Am. J. Respir. Cell Mol. Biol. 36: 270-275, 2007. Lung fibrosis was assessed via semi-quantitative morphological index (Wallach-Dayan et al., PNAS USA 104: 20460-20465, 2007). Lung collagen was measured using a Sircol Collagen Assay kit (Biocolor, Belfast, Northern Ireland), and standard protocol of trichrome staining. Isolation of mouse lung myofibroblasts Myofibroblast isolation and culture was performed as described in Golan-Gerstl et al., Am. J. Respir. Cell Mol. Biol. 36: 270-275, 2007; and Wallach-Dayan et al., PNAS USA 104: 20460-20465, 2007.
Immunohistochemistry (IHC) staining of lung tissue sections was performed as described in Golan-Gerstl et al., Am. J. Respir Cell Mol. Biol. 36: 270-275, 2007; and Wallach-Dayan et al., PNAS USA 104: 20460-20465, 2007.
CMH (30 μM) or control vehicle 4% DMSO were administered into WT mice by a second OA on day 6 of OA-BLM (0.05 mU), or control-saline (FIG. 6A). Similar to SIRT1^y/y mice, BLM-treated mice and control saline-treated mice (FIG. 6B) that were exposed to CMH vs. vehicle alone, had low SIRT1 and FLIP expression in lung sections. Myofibroblasts isolated from lungs of BLM-treated mice had decreased Ku70 binding to SIRT1 from 1.2 to 0.6 (FIG. 6C), increased Ku70 acetylation from an OD of 0.1 to 0.91 (FIG. 6D), and decreased Ku70/FLIP complex from an OD of 2.43 to 1.55 (FIG. 6E). Compared to vehicle, CMH-treated mice reduced H&E and collagen-trichrome staining (FIG. 6F, upper and lower panels, respectively), SMI grade (average SMI from 2 to 1.1, FIG. 6G), and collagen in Sircol assay (from 200 μg to only 50 μg, FIG. 6H). Thus, In vivo inhibition of SIRT1 activity, FLIP expression, and lung fibrosis were detected in CMH-BLM-treated mice and attenuation of deacetylation activity on Ku70, a decrease in Ku70/FLIP complex, and FLIP expression levels were detected in myofibroblasts isolated from lungs of CMH-BLM-treated mice. SIRT1-mediated Ku70-deacetylation may therefore stabilize FLIP via Ku70/FLIP complex in lung myofibroblasts promoting fibrosis, which can be inhibited by CMH.

[3] = molecular target: HDAC4 (Homo sapiens, UniProt P56524); settings: prostate cancer cells; cited from earlier work
HDAC4, sequence (P56524 whole entry, species assumed): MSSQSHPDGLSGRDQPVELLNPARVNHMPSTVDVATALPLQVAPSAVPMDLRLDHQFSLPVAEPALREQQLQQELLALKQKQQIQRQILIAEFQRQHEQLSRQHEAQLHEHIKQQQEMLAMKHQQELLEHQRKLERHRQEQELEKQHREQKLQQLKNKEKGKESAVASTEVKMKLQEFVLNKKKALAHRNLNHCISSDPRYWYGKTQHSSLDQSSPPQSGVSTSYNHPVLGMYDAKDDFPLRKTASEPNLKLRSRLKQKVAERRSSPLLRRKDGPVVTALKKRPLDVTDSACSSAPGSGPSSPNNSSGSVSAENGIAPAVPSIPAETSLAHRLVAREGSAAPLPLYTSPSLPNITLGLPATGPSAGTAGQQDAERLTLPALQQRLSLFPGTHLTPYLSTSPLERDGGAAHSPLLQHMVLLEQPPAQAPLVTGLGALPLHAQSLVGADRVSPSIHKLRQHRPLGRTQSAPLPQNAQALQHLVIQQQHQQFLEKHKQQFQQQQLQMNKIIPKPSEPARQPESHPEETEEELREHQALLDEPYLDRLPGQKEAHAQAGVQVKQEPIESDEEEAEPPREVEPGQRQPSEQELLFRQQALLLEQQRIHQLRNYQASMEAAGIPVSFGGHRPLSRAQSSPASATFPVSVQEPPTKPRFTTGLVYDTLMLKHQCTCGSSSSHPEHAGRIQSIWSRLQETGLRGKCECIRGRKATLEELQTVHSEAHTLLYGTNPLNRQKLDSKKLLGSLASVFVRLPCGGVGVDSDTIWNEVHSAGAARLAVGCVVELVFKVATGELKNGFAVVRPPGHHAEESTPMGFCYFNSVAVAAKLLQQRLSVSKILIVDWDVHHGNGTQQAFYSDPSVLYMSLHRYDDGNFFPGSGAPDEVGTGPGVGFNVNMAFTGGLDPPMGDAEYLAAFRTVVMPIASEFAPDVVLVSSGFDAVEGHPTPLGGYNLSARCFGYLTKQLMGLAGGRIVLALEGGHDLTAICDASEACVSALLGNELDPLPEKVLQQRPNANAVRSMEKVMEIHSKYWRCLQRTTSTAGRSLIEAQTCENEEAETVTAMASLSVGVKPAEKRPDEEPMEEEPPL

[4] = tested on: IPF myofibroblasts of CCL-191 line; test: Expression of specific genes in IPF myofibroblasts incubated with CMH (Table 1); assay type: cell-based, human; settings: CCL-191 incubated with CMH; 2-^ΔΔCt, mean±standard error
Protocol: Table 1 below indicates the expression of specific genes in IPF myofibroblasts of CCL-191 line incubated with CMH and the vehicle, correspondingly, calculated by 2-^ΔΔCt the data is represented as mean±standard error).

[5] = molecular target: HDAC3 (Homo sapiens, UniProt O15379); settings: prostate cancer cells; cited from earlier work
HDAC3, sequence (O15379 whole entry, species assumed): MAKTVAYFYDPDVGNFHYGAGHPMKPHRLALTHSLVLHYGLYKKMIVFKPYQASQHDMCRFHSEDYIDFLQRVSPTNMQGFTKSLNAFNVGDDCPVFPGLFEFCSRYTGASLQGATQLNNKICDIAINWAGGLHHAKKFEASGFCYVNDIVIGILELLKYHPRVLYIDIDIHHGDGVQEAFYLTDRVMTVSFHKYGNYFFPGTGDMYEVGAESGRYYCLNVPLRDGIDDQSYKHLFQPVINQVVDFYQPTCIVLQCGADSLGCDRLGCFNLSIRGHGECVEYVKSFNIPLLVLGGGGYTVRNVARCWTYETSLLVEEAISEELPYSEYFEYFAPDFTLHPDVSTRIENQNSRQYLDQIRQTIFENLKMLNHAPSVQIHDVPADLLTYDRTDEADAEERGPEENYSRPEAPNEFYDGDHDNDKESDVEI
HDAC3, sequence (Q9Y618 395-489 partner limits assumed, species assumed): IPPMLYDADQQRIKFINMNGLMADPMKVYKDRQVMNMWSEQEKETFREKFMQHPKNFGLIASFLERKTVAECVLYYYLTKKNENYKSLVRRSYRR

[6] = CMH 30 μM by OA on day 6 of OA-BLM, vs. vehicle

HDAC9, sequence (Q9UKV0 whole entry, species assumed): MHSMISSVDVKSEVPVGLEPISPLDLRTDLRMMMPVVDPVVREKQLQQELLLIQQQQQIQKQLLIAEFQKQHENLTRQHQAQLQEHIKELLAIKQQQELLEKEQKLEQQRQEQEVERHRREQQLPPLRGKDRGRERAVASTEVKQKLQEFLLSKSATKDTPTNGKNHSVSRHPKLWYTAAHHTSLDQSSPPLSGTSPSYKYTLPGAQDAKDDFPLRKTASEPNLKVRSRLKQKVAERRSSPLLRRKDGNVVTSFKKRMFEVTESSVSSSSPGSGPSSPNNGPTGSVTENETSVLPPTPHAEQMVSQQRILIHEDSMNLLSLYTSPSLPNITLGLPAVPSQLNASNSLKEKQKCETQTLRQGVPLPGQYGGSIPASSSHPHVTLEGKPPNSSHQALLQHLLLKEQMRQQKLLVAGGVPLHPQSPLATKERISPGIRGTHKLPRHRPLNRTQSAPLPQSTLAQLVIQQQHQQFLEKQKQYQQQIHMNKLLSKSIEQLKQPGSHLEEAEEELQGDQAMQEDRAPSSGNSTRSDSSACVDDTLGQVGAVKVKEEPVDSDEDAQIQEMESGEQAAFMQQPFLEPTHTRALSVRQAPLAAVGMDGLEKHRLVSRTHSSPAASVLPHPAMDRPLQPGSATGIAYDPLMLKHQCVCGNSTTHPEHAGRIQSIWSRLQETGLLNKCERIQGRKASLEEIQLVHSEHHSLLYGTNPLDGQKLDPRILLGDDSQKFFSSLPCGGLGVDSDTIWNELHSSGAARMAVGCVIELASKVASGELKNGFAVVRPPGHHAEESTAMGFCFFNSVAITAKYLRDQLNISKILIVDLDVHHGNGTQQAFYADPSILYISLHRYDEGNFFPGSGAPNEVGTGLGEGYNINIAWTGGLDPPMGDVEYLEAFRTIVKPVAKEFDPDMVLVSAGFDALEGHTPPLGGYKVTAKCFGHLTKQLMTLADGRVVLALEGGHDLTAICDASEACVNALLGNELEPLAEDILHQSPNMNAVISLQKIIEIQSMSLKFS

**Q.** Which results are given for `Cc1cc(Cl)ccc1OCCCC(=O)NO` [CMH, 4-(4-chloro-2-methylphenoxy)-N-hydroxybutanamide]?
**A.** Inhibition of HDAC9 [1]: not inhibited; H&E and collagen-trichrome staining of lung tissue sections ([2]; CMH 30 μM OA day 6, day 14 post BLM, compared to vehicle): reduced; Collagen in Sircol assay ([2]; CMH 30 μM OA day 6, day 14 post BLM, vehicle 200 μg): 50 µg; Average SMI grade (semi-quantitative morphological index) ([2]; CMH 30 μM OA day 6, day 14 post BLM, vehicle 2): 1.1; FLIP expression in lung sections (IHC) [2, 6]: low; SIRT1 expression in lung sections (IHC) [2, 6]: low; Inhibition of HDAC4 [3]: not inhibited; AIFM1 expression, M ± m [4]: 12.3 ± 2.89; BAX expression, M ± m [4]: 319.29 ± 78.06; BCL2L10 expression, M ± m [4]: 0.13 ± 0.05; BCL2L11 expression, M ± m [4]: 0.58 ± 0.09; CASP8 expression, M ± m [4]: 7.13 ± 4.18; CASP9 expression, M ± m [4]: 9.57 ± 6.69; CFLAR expression, M ± m [4]: 3.5 ± 1.42; CFLAR-AS1 expression, M ± m [4]: 0.11 ± 0.04; DIABLO expression, M ± m [4]: 13.48 ± 3.27; E2F1 expression, M ± m [4]: 0.39 ± 0.21; HIC1 expression, M ± m [4]: 0.68 ± 0.44; MCL1 expression, M ± m [4]: 67.57 ± 34.04; PPP1R13B expression, M ± m [4]: 0.1 ± 0.05; PRKCD expression, M ± m [4]: 9 ± 4; PRKCDBP expression, M ± m [4]: 21.87 ± 9.21; SIRT1 expression, M ± m [4]: 0.48 ± 0.04; TP53AIP1 expression, M ± m [4]: 1.11 ± 0.2; TP53INP2 expression, M ± m [4]: 8.16 ± 0.54; TP53 expression, M ± m [4]: 1.8 ± 1.19; XRCC6 expression, M ± m [4]: 84.85 ± 22.88; Inhibition of HDAC3 [5]: Selective inhibition
